Key:
Escherichia coli [1] = test: Photocleavage activity against pUC18 DNA assessed as conversion supercoiled to nicked circular form relative to H2TMPyP
Escherichia coli [2] = test: Photocleavage activity against pUC18 DNA assessed as conversion supercoiled to nicked circular form relative to H2mXy-Zn complex
Escherichia coli [3] = test: Photocleavage activity against pUC18 DNA assessed as conversion supercoiled to nicked circular form relative to H2pXy-Zn complex
Escherichia coli [4] = test: Photocleavage activity against pUC18 DNA assessed as conversion supercoiled to nicked circular form relative to H2pXy
Escherichia coli [5] = test: Photocleavage activity against pUC18 DNA assessed as increase in conversion supercoiled to nicked circular form in presence of 20% DMSO after 30 mins

| Structure (SMILES) | Activity (Escherichia coli [1]) | Activity (Escherichia coli [2]) | Activity (Escherichia coli [3]) | Activity (Escherichia coli [4]) | Activity (Escherichia coli [5]) |
| --- | --- | --- | --- | --- | --- |
| C[n+]1ccc(-c2c3nc(c(-c4cc[n+](C)cc4)c4ccc([nH]4)c(-c4cc[n+](C)cc4)c4nc(c(-c5ccc(C(=O)NCc6cccc(CNC(=O)c7ccc(-c8c9nc(c(-c%10cc[n+](C)cc%10)c%10ccc([nH]%10)c(-c%10cc[n+](C)cc%10)c%10nc(c(-c%11cc[n+](C)cc%11)c%11ccc8[nH]%11)C=C%10)C=C9)cc7)c6)cc5)c5ccc2[nH]5)C=C4)C=C3)cc1 | 28% | 12% | 6% | 25% |  |
| C[n+]1ccc(-c2c3nc(c(-c4cc[n+](C)cc4)c4ccc([nH]4)c(-c4cc[n+](C)cc4)c4nc(c(-c5ccc(C(=O)NCc6ccc(CNC(=O)c7ccc(-c8c9nc(c(-c%10cc[n+](C)cc%10)c%10ccc([nH]%10)c(-c%10cc[n+](C)cc%10)c%10nc(c(-c%11cc[n+](C)cc%11)c%11ccc8[nH]%11)C=C%10)C=C9)cc7)cc6)cc5)c5ccc2[nH]5)C=C4)C=C3)cc1 |  |  | 26% |  | 95% |

— ChEMBL document CHEMBL1140000, “Synthetic control of interchromophoric interaction in cationic bis-porphyrins toward efficient DNA photocleavage and singlet oxygen production in aqueous solution” (Bioorg Med Chem, 2007)
